Molecules are shown by their SMILES. Read-outs that look alike come from different tables or passages of the source.

Assay type in all cases: cell-based
Test [1] has as its system Human Rhinovirus 16 (HRV16). Description: H1-HeLa HRV-CTG 384-well assay, HRV16, Example X. Conditions: Rhinovirus A, 96 h, read-out: EC50 H1-HeLa_HRV 16_HRV-CTG 384-well Assay (per Ex. X). The text has this:
(§1) Example X: H1-HeLa HRV-CTG 384-Well Assay
(§2) H1-Hela cell line (ATCC, Manassas, VA, Cat #CRL-1958) was maintained in Dulbecco's […] (DMEM) (Corning, New York, NY, Cat #15-018CM) supplemented with 10% fetal bovine serum (FBS) (Hyclone, Logan, UT, Cat #SH30071-03), and 1× Penicillin-Streptomycin-L-Glutamine (Corning, New York, NY, Cat #30-009-CI). Cells were passaged 2 times per week to maintain sub-confluent densities and were used for experiments at passage 5-30. The Human Rhinovirus 1B (HRV1B) (ATCC, Manassas, VA, Cat #VR-1645), Human Rhinovirus 14 (HRV14) (ATCC, Manassas, VA, Cat #VR-284), and Human Rhinovirus 16 (HRV16) (ATCC, Manassas, VA, Cat #BR-283) was obtained through ATCC. Viral infection was monitored by determining viability of H1-HeLa cells as described below.
(§3) Test molecules are prepared in 100% DMSO in 384-well polypropylene plates (Greiner, Monroe, NC, Cat #784201) with 8 compounds per plate in grouped replicates of 4 at 10 serially diluted concentrations (1:3). The serially diluted compounds were transferred to low dead volume Echo plates (Labcyte, Sunnyvale, CA, Cat #LP-0200).
(§4) The test compounds were spotted to 384-well assay plates (Greiner, Monroe, NC, Cat #781091) at 200 nL per well using an Echo acoustic dispenser (Labcyte, Sunnyvale, CA). H1-HeLa cells were harvested and suspended in DMEM (supplemented with 2% FBS and 1× Penicillin-Streptomycin-L-Glutamine) and seeded to the pre-spotted assay plates at 5,000 cells per well in 30 μL. HRV1B, HRV14, and HRV16 was diluted in DMEM (supplemented with 2% FBS and 1× Penicillin-Streptomycin-L-Glutamine) at 97.1 million Infectious Units (IU) per mL, 151 million IU per mL and 221 million IU per mL respectively. 10 μL of virus per well was added to the assay plates containing cells and compounds, for an MOI of 0.5, 1.0, and 0.25 respectively. The assay plates were incubated for 4 days at 37° C. and 5% CO2. At the end of incubation, Celltiter-Glo (Promega, Madison, WI, Cat #G7573) was prepared. The assay plates and Celltiter-Glo reagent were equilibrated to room temperature for at least 15 minutes. 40 μL per well of Celltiter-Glo reagent was added and the plates were incubated at room temperature for 15 minutes before reading the luminescence signal on an EnVision multimode plate reader (Perkin Elmer, Waltham, MA). Rupintrivir was used as positive control and DMSO was used as negative control. Values were normalized to the positive and negative controls (as 0% and 100% replication, respectively) and data was fitted using non-linear regression analysis by Gilead's dose response tool. The EC50 value for each compound was defined as the concentration reducing viral replication by 50%.

Test [2] concerns Human Rhinovirus 14 (HRV14). Description: H1-HeLa HRV-CTG 384-well assay, HRV14, Example X. Conditions: Rhinovirus B, 96 h, read-out: EC50 H1-HeLa_HRV 14_HRV-CTG 384-well Assay (per Ex. X).
Excerpt: as §1, §2, §3, §4

Test [3] has as its system Respiratory syncytial virus recombinant with luciferase (RSV-Luc5). Briefly: HEp-2 RSV-Luc5 384-well assay (EC50 RSVFLUC Hep2-384 v2), Example V. Conditions: human respiratory syncytial virus, HEp-2, 72 h, read-out: EC50 RSV FLuc Hep-2 384 V2 (per Ex. V). The text has this:
Example V: HEp-2 RSV-Luc5 384-Well Assay (EC50 RSVFLUC Hep2-384 v2)
HEp-2 cell line was purchased from ATCC (Manassas, VA Cat #CCL-23) and maintained in Dulbecco's […] (DMEM) (Corning, New York, NY, Cat #15-018CM) supplemented with 10% fetal bovine serum (FBS) (Hyclone, Logan, UT, Cat #SH30071-03) and 1× Penicillin-Streptomycin-L-Glutamine (Corning, New York, NY, Cat #30-009-C1). Cells were passaged 2 times per week to maintain sub-confluent densities and were used for experiments at passage 5-20. Respiratory syncytial virus recombinant with luciferase (RSV-Luc5) (≥1×107 TCID50/ml) was purchased from Microbiologics (Saint Cloud, MN). Viral replication was determined in HEp-2 cells in the following manner.
Compounds are prepared in 100% DMSO in 384-well polypropylene plates (Greiner, Monroe, NC, Cat #784201) with 8 compounds per plate in grouped replicates of 4 at 10 serially diluted concentrations (1:3). The serially diluted compounds were transferred to low dead volume Echo plates (Labcyte, Sunnyvale, CA, Cat #LP-0200).
The test compounds were spotted to 384-well assay plates (Greiner, Monroe, NC, Cat #781091) at 200 nL per well. HEp-2 cells were harvested and suspended in DMEM (supplemented with 10% FBS and 1× Penicillin-Streptomycin-L-Glutamine) and seeded to the pre-spotted assay plates at 4,000 cells per well in 30 μL. RSV-Luc5 viruses were diluted in DMEM (supplemented with 10% FBS and 1× Penicillin-Streptomycin-L-(Glutamine) at 200,000 Infectious Units (IU) per mL and 10 μL per well was added to the assay plates containing cells and compounds, for an MOI=0.5. The assay plates were incubated for 3 days at 37° C. and 5% CO2. At the end of incubation, One-Glo reagent (Promega, Madison, WI, Cat #E6120) was prepared. The assay plates and One-Glo reagent were equilibrated to room temperature for at least 15 minutes. 40 μL per well of One-Glo reagent was added and the plates were incubated at room temp for 15 minutes before reading the luminescence signal on an EnVision multimode plate reader (Perkin Elmer, Waltham, MA). Remdesivir was used as positive control and DMSO was used as negative control. Values were normalized to the positive and negative controls (as 0% and 100% replication, respectively) and data was fitted using non-linear regression analysis by Gilead's dose response tool. The EC50 value for each compound was then determined as the concentration reducing the viral replication by 50%.

Where [4] appears, read: H1-HeLa cells, HRV16 MOI 0.25, 4 days, Celltiter-Glo.
The mark [5] stands for this setting: H1-HeLa cells, HRV14 MOI 1.0, 4 days, Celltiter-Glo.

For the molecule `CCOC(=O)OC[C@@]1(C#N)O[C@@H](c2ccc3c(N)ncnn23)[C@H](O)[C@@H]1O` [Compound 22, ((2R,3S,4R,5S)-5-(4-aminopyrrolo[2,1-f][1,2,4]triazin-7-yl)-2-cyano-3,4-dihydroxytetrahydrofuran-2-yl)methyl ethyl carbonate], the concentration for a half-maximal effect (EC50) in test [1] (setting [4]) came out at 26.3 µM; in test [2] (setting [5]) it was 19.9 µM; in test [3], 26.3 µM.

In the case of `COC[C@@H](C)OC(=O)OC[C@@]1(C#N)O[C@@H](c2ccc3c(N)ncnn23)[C@H](O)[C@@H]1O` [Compound 38, ((2R,3S,4R,5S)-5-(4-aminopyrrolo[2,1-f][1,2,4]triazin-7-yl)-2-cyano-3,4-dihydroxytetrahydrofuran-2-yl)methyl ((R)-1-methoxypropan-2-yl) carbonate], the EC50 came out at 40 µM in test [1] (setting [4]), 24.4 µM in test [2] (setting [5]) and 50 µM in test [3].

Regarding `CC[C@@H](C)OC(=O)OC[C@@]1(C#N)O[C@@H](c2ccc3c(N)ncnn23)[C@H](O)[C@@H]1O` [Compound 10, ((2R,3S,4R,5S)-5-(4-aminopyrrolo[2,1-f][1,2,4]triazin-7-yl)-2-cyano-3,4-dihydroxytetrahydrofuran-2-yl)methyl ((R)-sec-butyl) carbonate], the EC50 is 36.7 µM in test [1] (setting [4]), 35.7 µM in test [2] (setting [5]) and 24.7 µM in test [3].

As to `CCCOC(=O)OC[C@@]1(C#N)O[C@@H](c2ccc3c(N)ncnn23)[C@H](O)[C@@H]1O` [Compound 9, ((2R,3S,4R,5S)-5-(4-aminopyrrolo[2,1-f][1,2,4]triazin-7-yl)-2-cyano-3,4-dihydroxytetrahydrofuran-2-yl)methyl propyl carbonate], the concentration for a half-maximal effect (EC50) was 10.9 µM in test [1] (setting [4]), 14.7 µM in test [2] (setting [5]) and 13.3 µM in test [3].

With `CC[C@H](C)COC(=O)OC[C@@]1(C#N)O[C@@H](c2ccc3c(N)ncnn23)[C@H](O)[C@@H]1O` [Compound 28, ((2R,3S,4R,5S)-5-(4-aminopyrrolo[2,1-f][1,2,4]triazin-7-yl)-2-cyano-3,4-dihydroxytetrahydrofuran-2-yl)methyl ((S)-2-methylbutyl) carbonate], the EC50 was determined as 9.51 µM in test [1] (setting [4]), 8.73 µM in test [2] (setting [5]) and 18.2 µM in test [3].

Regarding `CCCCCCOC(=O)OC[C@@]1(C#N)O[C@@H](c2ccc3c(N)ncnn23)[C@H](O)[C@@H]1O` [Compound 19, ((2R,3S,4R,5S)-5-(4-aminopyrrolo[2,1-f][1,2,4]triazin-7-yl)-2-cyano-3,4-dihydroxytetrahydrofuran-2-yl)methyl hexyl carbonate], the EC50 in test [1] (setting [4]) worked out at 8.39 µM; in test [2] (setting [5]) it was 7 µM; in test [3], 13.6 µM.

`N#C[C@]1(COC(=O)OC2CC3(CCC3)C2)O[C@@H](c2ccc3c(N)ncnn23)[C@H](O)[C@@H]1O` [Compound 36, ((2R,3S,4R,5S)-5-(4-aminopyrrolo[2,1-f][1,2,4]triazin-7-yl)-2-cyano-3,4-dihydroxytetrahydrofuran-2-yl)methyl spiro[3.3]heptan-2-yl carbonate]: the EC50 in test [1] (setting [4]) worked out at 12 µM; in test [2] (setting [5]) it was 10.6 µM; in test [3] it was 14.3 µM.

Turning to `CC(C)CCOC(=O)OC[C@@]1(C#N)O[C@@H](c2ccc3c(N)ncnn23)[C@H](O)[C@@H]1O` [Compound 7, ((2R,3S,4R,5S)-5-(4-aminopyrrolo[2,1-f][1,2,4]triazin-7-yl)-2-cyano-3,4-dihydroxytetrahydrofuran-2-yl)methyl isopentyl carbonate], the figures for the 50% effective concentration (EC50) in test [1] (setting [4]), in test [2] (setting [5]) and in test [3] were 9.13 µM, 7.31 µM and 16.8 µM, respectively.

Turning to `N#C[C@]1(COC(=O)OC2CCCCC2)O[C@@H](c2ccc3c(N)ncnn23)[C@H](O)[C@@H]1O` [Compound 21, ((2R,3S,4R,5S)-5-(4-aminopyrrolo[2,1-f][1,2,4]triazin-7-yl)-2-cyano-3,4-dihydroxytetrahydrofuran-2-yl)methyl cyclohexyl carbonate], the concentration for a half-maximal effect (EC50) in test [1] (setting [4]) stood at 26.7 µM; in test [2] (setting [5]), 23.5 µM; in test [3] it was 21.9 µM.

Turning to `CC(C)(C)OC(=O)OC[C@@]1(C#N)O[C@@H](c2ccc3c(N)ncnn23)[C@H](O)[C@@H]1O` [Compound 13, ((2R,3S,4R,5S)-5-(4-aminopyrrolo[2,1-f][1,2,4]triazin-7-yl)-2-cyano-3,4-dihydroxytetrahydrofuran-2-yl)methyl tert-butyl carbonate], the EC50 came out at 7.67 µM in test [1] (HRV16, H1-HeLa); 4.67 µM in test [2] (HRV14, H1-HeLa); 12.1 µM in test [3].

With `COC(=O)OC[C@@]1(C#N)O[C@@H](c2ccc3c(N)ncnn23)[C@H](O)[C@@H]1O` [Compound 6, ((2R,3S,4R,5S)-5-(4-aminopyrrolo[2,1-f][1,2,4]triazin-7-yl)-2-cyano-3,4-dihydroxytetrahydrofuran-2-yl)methyl methyl carbonate], the results for the EC50 in test [1] (setting [4]), in test [2] (setting [5]) and in test [3] were 13.7 µM, 15.2 µM and 17.8 µM, respectively.

Take `N#C[C@]1(COC(=O)O[C@@H]2CCOC2)O[C@@H](c2ccc3c(N)ncnn23)[C@H](O)[C@@H]1O` [Compound 24, ((2R,3S,4R,5S)-5-(4-aminopyrrolo[2,1-f][1,2,4]triazin-7-yl)-2-cyano-3,4-dihydroxytetrahydrofuran-2-yl)methyl ((R)-tetrahydrofuran-3-yl) carbonate]: the figures for the concentration for a half-maximal effect (EC50) in test [1] (setting [4]), in test [2] (setting [5]) and in test [3] were 14.1 µM, 10.2 µM and 29.5 µM, respectively.

For the molecule `N#C[C@]1(COC(=O)OCc2ccccc2)O[C@@H](c2ccc3c(N)ncnn23)[C@H](O)[C@@H]1O` [Compound 29, ((2R,3S,4R,5S)-5-(4-aminopyrrolo[2,1-f][1,2,4]triazin-7-yl)-2-cyano-3,4-dihydroxytetrahydrofuran-2-yl)methyl benzyl carbonate], the results for the EC50 in test [1] (setting [4]), in test [2] (setting [5]) and in test [3] were 9.86 µM, 8.06 µM and 19.6 µM, respectively.

(Values after US20230382940A1, “ANTIVIRAL COMPOUNDS AND METHODS OF MAKING AND USING THE SAME” (Gilead Sciences, Inc., priority 2022, published 2023).)
